The record followed here is patent publication US8993626B2, “Methods of treatment using sterculic acid” (The United States of America, as represented by the …, priority 2010, dated 2015).

Entries after “also recorded” stand apart in the source; their conditions may differ.

In one series the test system is HUVEC. Nature of the series: Cord formation assay on Matrigel. It counts as cell-based. The following applies: data not shown.
The test system of series [1] is ARPE19 cells. Nature of the series: 7-ketocholesterol-mediated cytotoxicity, 24-well CCK-8 viability and images. Particulars: 24 hr.
Series [2] relates to ARPE19 cells. Nature of the series: CellTiter-Glo luminescent cell viability assay, 15 μM 7KCh-induced cytotoxicity. It is filed as cell-based, human. The following applies: 1 μM + 15 μM 7KCh, 24 hr. Background: In ATP-based viability assays light output follows the ATP content of the culture.
The next series relates to laser-induced CNV. Nature of the series: Laser-induced choroidal neovascularization (CNV) rat model. It is filed as in vivo, Brown Norway rats. Particulars: day 7. The method, then:
FIG. 2 depicts the results of choroidal neovascularization (CNV) suppression after a single intravitreal injection 48 hours after laser exposure. Box-and-whisker plot representations of volume of CNV lesions from rats treated with a single intravitreal injection as indicated in the x-axis. The y-axis represents neovessel lesion volume expressed in cubic microns. The number of lesions evaluated per condition (n) is depicted in the graph. Values inside of the box represent the central 50% of measurements. The horizontal line inside the box corresponds to the median values, and the vertical lines outside the boxes correspond to variances of measurements. *Highly significant difference compared with oleic acid and PBS.
FIG. 3 depicts the results of daily application of sterculic acid-containing drops to suppress laser-induced CNV. (A) Representative flat-mount projections from confocal microscope Z-series 7 days after laser. The red channel identifies vessels (Isolectin IB-4). Conditions are indicated above each projection. (B) Box-and-whisker plot representations of volume of CNV lesions from rats treated with daily drops as indicated in the x-axis. The y-axis represents neovessel lesion volume expressed in cubic microns. The number of lesions evaluated per condition (n) is depicted in the graph. Values inside of the box represent the central 50% of measurements. […]
FIG. 4 depicts the dose response of CNV suppression after daily application of sterculic acid-containing drops after laser exposure. […] The number of lesions evaluated per condition (n) is depicted in the graph. […]
Laser-induced CNV, flat mount preparations, and lesion evaluations were performed following established methods. […] Neovessels were visualized with confocal microscopy using choroid/RPE flat mounts labelled with Alexa Fluor 568-Isolectin IB4 to identify endothelial cells and neovessel volumes were quantified using VOLOCITY software. […]

Another series has as its system ARPE-19 cells. Briefly: Immunoblots of CHOP and GRP78. Particulars: 1 μM + 8 μM 7KCh. It counts as cell-based. The method, then: FIGS. 16A-16E depict the secreted protein levels of (A) VEGF, (B) IL-6, and (C) IL-8 were measure by ELISA 48 hr after treatment with 6 μM 7KCh, 1 μM sterculic acid, 1 μM stearic acid, or the combinations of 7KCh with either sterculic acid or stearic acid. Error bars indicate the standard deviations. *p<0.05 comparing to 7KCh, n=3. Two-tailed Student's t-test. The expressions of GRP78 and CHOP were shown by immunoblots (D) 24 hr or (E) 48 hr after treatment with 8 μM 7KCh, 1 μM sterculic acid, 1 μM stearic acid, or the combinations of 7KCh with either sterculic acid or stearic acid.
ARPE-19 cells were seeded in 24-well plates with 1×10^5 cells per well and allowed to recover for 16-24 hr. Once confluency reached approximately 90%, the effect of the fatty acids against 7KCh-mediated cell death was examined 24 hr after incubation in serum-free medium with 12 μM 7KCh. Fatty acids were tested at 0.1, 0.5, 1, 5 and 10 μM concentrations. The effects of the fatty acids against 7KCh-mediated inflammation and ER stress were examined by incubating cells in 1 μM fatty acids with either 8 μM 7KCh (24 hr for quantitative real-time PCR (qRT-PCR), 24 and 48 hr for immunoblot), or 6 μM 7KCh for 48 hr (for ELISA). Three individual experiments were performed for each treatment with quadruplicate measurements performed for each experiment in 24-well plates.
Lysis of ARPE-19 cells was performed using MPER buffer solution (Thermo Fisher Scientific) containing Complete Protease Inhibitor Cocktail (Roche Diagnostics). A total of 10 μg protein samples of the cell lysate were separated by SDS-PAGE on 10% Bis-Tris gels (Invitrogen). The gels were blotted on to nitrocellulose membranes (Invitrogen). The proteins were probed with primary antibodies for CHOP (1:1000 dilution), GRP78 (1:1000), or GAPDH (1:2000) at 4° C. overnight. The membranes were then further incubated with anti-rabbit IgG, HRP-linked antibodies (1:2000 dilution) at room temperature for 1 hr. […]
(In western blotting, separated proteins are transferred to a membrane and probed.)

The test system of another series is Melanoma, UACC-62. Briefly: NCI in vitro anti-cancer cell line screen (SRB). Particulars: Homo sapiens, UACC-62, 48 h.

Description for Melanoma, UACC-62: The human tumor cell lines used in the cancer screen panel were grown in RPMI 1640 medium containing 5% FBS and 2 mM L-glutamine. The cells were inoculated into 96-well microtiter plates in 100 μl at plating density ranging from 5000 to 40,000 cell/well. […] Following drug addition, the plates were incubated for an additional 48 h. The assay was terminated by the addition of cold 10% TCA. The supernatant was discarded, and the plates were washed five times with water and air dried. Sulforhodamine B (SRB) solution (100 μl) at 0.4% (w/v) in 1% acetic acid was added to each well, and plates were incubated for 10 min at room temperature. After staining, unbound dye was removed by washing five times with 1% acetic acid and the plates were air dried. Bound stain was subsequently solubilized with 10 mM trizma base, and the absorbance was read on an automated plate reader at a wavelength of 515 nm.
A sulforhodamine B (SRB) end point was used to calculate the median growth inhibition (GI50). GI50 refers to the concentration at which the drug inhibits tumor cell growth by 50%.

As a reminder, the GI50 is the concentration giving 50% growth inhibition. In the case of `CCCCCCCCC1=C(CCCCCCCC(=O)O)C1` [sterculic acid, 8-(2-octacyclopropen-1-yl)octanoic acid], the “viability of HUVEC at concentrations required to inhibit cord formation” value in the series with HUVEC is recorded as “did not affect their viability”. Moreover, the “protection of cell confluency and morphology (images)” value with ARPE19 cells [1] (0.5 μM co-treatment with 12 μM 7KCh) was “maintain both cell confluency and cell morphology similar to the control; also recorded: apparent protection”; with ARPE19 cells [1] (1 μM co-treatment with 12 μM 7KCh), “maintain both cell confluency and cell morphology similar to the control; also recorded: apparent protection”. The “co-treatment concentration that completely offsets the 7KCh cytotoxic effect” value with ARPE19 cells [1] (12 μM 7KCh, CCK-8) turned out to be 1 µM. Moreover, the “concentration at which apparent protection is seen” value in the series on ARPE19 cells [1] (12 μM 7KCh, CCK-8) stood at 0.5 µM. The “cell viability relative to the level of untreated control (ATP level)” value with ARPE19 cells [2] was 80%. The CNV suppression with laser-induced CNV (daily drops 0.1 mM after laser, compared to PBS) was found to be 66%; in the series on laser-induced CNV (daily drops 1 mM after laser, compared to oleic acid) it was 45%; in the series with laser-induced CNV (single intravitreal injection 1 mM in 1 μL, 48 hours after laser, compared to oleic acid and PBS injection), 33%. Besides, the “effect on 7KCh-induced CHOP and GRP78 protein expression” value in the series with ARPE-19 cells (24 hr) was “completely inhibited”. Further, the “inhibitory effect on CHOP and GRP78 protein expression” value in the series with ARPE-19 cells (after 48 hr) is “seems to decrease”. Moreover, in the series with Melanoma, UACC-62, the concentration for 50% growth inhibition (GI50) came out at 1000 nM.
